{"source": "patent US20140228287A1", "about": "“1-[(3-CYANO-PYRIDIN-2-YL)METHYL]-3-METHYL-7-(2-BUTYN-1-YL)-8-[3-(R)-AMINO-PIPERIDIN-1-YL]-AXANTHINE FOR THE TREATMENT OF A METABOLIC DISORDER OF A PREDOMINANTLY CARNIVOROUS NON-HUMAN ANIMAL” (BOEHRINGER INGELHEIM VETMEDICA GMBH, priority 2010, published 2014)", "key": {"[1]": {"target": "T1, DPP IV (Felis catus, UniProt Q9N2I7)", "T1 construct": "Blood samples for the determination of this compound and DPP IV activity were collected; from tissue; host or cells: plasma of domestic short hair / purpose-bred cats dosed orally", "T1 sequence (Q9N2I7 38-765 limits assumed)": "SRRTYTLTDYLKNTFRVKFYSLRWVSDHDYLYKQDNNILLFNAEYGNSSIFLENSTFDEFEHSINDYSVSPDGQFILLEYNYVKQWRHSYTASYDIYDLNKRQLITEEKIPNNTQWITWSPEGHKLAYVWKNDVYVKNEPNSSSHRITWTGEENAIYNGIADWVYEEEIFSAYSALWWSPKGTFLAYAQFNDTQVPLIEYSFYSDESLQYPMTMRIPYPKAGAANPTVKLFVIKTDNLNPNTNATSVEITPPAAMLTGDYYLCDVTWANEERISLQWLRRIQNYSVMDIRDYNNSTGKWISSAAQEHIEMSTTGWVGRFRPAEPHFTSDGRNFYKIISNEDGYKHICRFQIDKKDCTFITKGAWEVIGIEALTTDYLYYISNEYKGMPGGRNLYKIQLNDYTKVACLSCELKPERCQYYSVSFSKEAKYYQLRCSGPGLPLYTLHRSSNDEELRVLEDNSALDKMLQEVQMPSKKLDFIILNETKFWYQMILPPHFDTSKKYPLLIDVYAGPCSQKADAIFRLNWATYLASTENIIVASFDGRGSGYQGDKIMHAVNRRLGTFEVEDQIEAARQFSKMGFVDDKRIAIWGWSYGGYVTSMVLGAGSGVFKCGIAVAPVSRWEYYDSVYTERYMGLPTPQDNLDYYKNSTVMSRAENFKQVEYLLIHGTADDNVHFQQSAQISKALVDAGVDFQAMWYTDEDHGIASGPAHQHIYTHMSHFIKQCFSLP", "experiment": "Exploratory single dose PK/PD (0.01/0.1/1.0 mg/kg) in cats: DPP IV activity", "assay_type": "in vivo", "settings": "read-out: DPP IV activity in cat plasma; for response vs control in vivo at 0.01 mg/kg: 0.01 mg/kg single oral; for response vs control in vivo at 0.1 mg/kg: 0.1 mg/kg single oral; for response vs control in vivo at 1 mg/kg: 1 mg/kg single oral", "description": "The investigation of the PK/PD values was conducted in the same way as in Example 7, with the variations described below.\nThe aim of this study was to investigate the PK/PD of 1-[(3-cyano-pyridin-2-yl)methyl]-3-methyl-7-(2-butyn-1-yl)-8-[3-(R)-amino-piperidin-1-yl]-xanthine monohydrochloride in the cat after a single oral administration of 0, 0.01, 0.1 and 1.0 mg/kg body weight of this compound (dosages were based on the free base).\nEleven clinically healthy male adult domestic short hair cats with a body weight range of 3.5-5.0 kg were used in this study. All animals were treated orally once via a stomach tube. Blood samples were drawn at 0 h (i.e. prior to treatment), 30 min as well as 1, 2, 4, 8, 12, 24, 36, 48, 72 and 96 h after treatment and the activity of DPP IV was determined like in Example 6."}, "[2]": {"target": "Prolyl-Oligo Peptidase (or Prolyl Endopeptidase) (Homo sapiens, UniProt P48147)", "sequence (P48147 whole entry)": "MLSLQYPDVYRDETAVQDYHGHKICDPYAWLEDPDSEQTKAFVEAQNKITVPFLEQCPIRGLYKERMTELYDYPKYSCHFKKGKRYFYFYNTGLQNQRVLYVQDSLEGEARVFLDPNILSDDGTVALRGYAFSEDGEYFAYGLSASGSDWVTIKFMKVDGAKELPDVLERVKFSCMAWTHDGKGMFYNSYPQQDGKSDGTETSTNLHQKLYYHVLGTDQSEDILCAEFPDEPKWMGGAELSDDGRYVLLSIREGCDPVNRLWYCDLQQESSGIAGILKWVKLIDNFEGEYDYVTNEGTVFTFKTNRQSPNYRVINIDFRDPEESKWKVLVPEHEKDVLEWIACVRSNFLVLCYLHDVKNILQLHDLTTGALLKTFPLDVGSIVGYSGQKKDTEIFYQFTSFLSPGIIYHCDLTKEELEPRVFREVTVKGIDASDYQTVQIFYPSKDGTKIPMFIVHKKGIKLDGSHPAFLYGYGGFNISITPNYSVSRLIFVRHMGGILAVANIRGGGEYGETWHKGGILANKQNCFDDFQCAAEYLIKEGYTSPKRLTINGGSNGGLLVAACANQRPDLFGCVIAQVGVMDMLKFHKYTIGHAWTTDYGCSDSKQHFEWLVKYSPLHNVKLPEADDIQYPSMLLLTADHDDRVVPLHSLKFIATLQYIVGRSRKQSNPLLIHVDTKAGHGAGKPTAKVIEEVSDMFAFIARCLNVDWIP", "experiment": "In vitro selectivity, human proteases: Prolyl-Oligo Peptidase", "assay_type": "biochemical", "settings": "up to 100 μM", "from_the_text": "In order to determine the in vitro selectivity of 1-[(3-cyano-pyridin-2-yl)methyl]-3-methyl-7-(2-butyn-1-yl)-8-[3-(R)-amino-piperidin-1-yl]-xanthine, the ability of this compound to inhibit a number of human proteases was investigated as described in Thomas et al. (2008), J. Pharmacol. Exp. Ther., vol. 325, p. 175-182, chapter In vitro DPP-4 Inhibition Assay, p. 176."}, "[3]": {"system": "blood glucose", "experiment": "Glucose monitoring in obese/non-obese cats, 7 days once daily dosing", "assay_type": "in vivo, cat", "settings": "9 mg once daily 7 days; for Glucose, Max / Glucose, Mean / Glucose, Median / Glucose, Min: all 14 obese and non-obese cats, 168 hour period", "from_the_text": "The aim of this exploratory, randomized, placebo controlled crossover study was to investigate the effect of 1-[(3-cyano-pyridin-2-yl)methyl]-3-methyl-7-(2-butyn-1-yl)-8-[3-(R)-amino-piperidin-1-yl]-xanthine monohydrochloride on DPP IV activity and on glucose concentrations in obese and non-obese cats after repeated oral administration over seven days.\nFourteen clinically healthy male and female (8 obese and 6 non-obese) purpose-bred cats were used in this study. The animals were randomly allocated to two groups of cats, obese and non-obese, and treated in a cross-over design with 9 mg 1-[(3-cyano-pyridin-2-yl)methyl]-3-methyl-7-(2-butyn-1-yl)-8-[3-(R)-amino-piperidin-1-yl]-xanthine monohydrochloride or placebo, once daily for 7 days, with a following wash-out period of 21 days.\nCats were fed once daily 40 min after administration of the compound or the placebo, respectively.\nTo allow a Continuous glucose monitoring (CGM) a Continuous glucose monitoring system (CGMS) was applied. To this end, on day 1 a Medtronic continuous glucose monitoring sensor (Guardian system; Medtronic Minimed, Northridge, Calif., USA) was placed interstitially. The skin was shaved, and then wiped several times with 70% alcohol. The sensor was inserted into the skin and secured to the skin with a cover provided by Medtronics, and Elasticon. The CGMS was calibrated 2 times daily using a glucometer. When a sensor became non-functional, a new sensor was placed. The sensors were placed between the shoulder blades. Data were recalled via a wireless system.\nAlso blood samples for were taken before and 6, 12, 24, 64, and 168 hours (3 ml each) after oral administration of the test compound or the placebo. Blood samples for the calibration of the CGMS were taken at least twice daily from day 1 to day 7 approximately twelve hours apart (0.2 ml of blood each time). Glucose measurements were performed using a glucometer (Presto WaveSense) and also a colorimetric glucose oxidase method (Genzyme Diagnostics PEI Incorporated; Charlottetown, Canada), reference method, at appropriate time points (0.2 ml each time; see results section). Interstitial glucose concentrations were followed with the continuous glucose monitoring system. After 7 days, the CGMS was removed.\nThe measured mean, median, min, and max glucose values for all 14 cats during a 168 hour testing period using the three glucose measurement methods are shown in Table 9."}, "[4]": {"experiment": "Single dose study (1.0/5.0/10.0 mg/kg) in cats: adverse events", "assay_type": "in vivo, cat", "settings": "single oral 1, 5, 10 mg/kg", "description": "The aim of this study was to investigate the PK/PD behaviour of 1-[(3-cyano-pyridin-2-yl)methyl]-3-methyl-7-(2-butyn-1-yl)-8-[3-(R)-amino-piperidin-1-yl]-xanthine in the cat following a single oral administration of 0, 1, 5 and 10 mg/kg body weight (dosages were based on the free base: 1 mg 1-[(3-cyano-pyridin-2-yl)methyl]-3-methyl-7-(2-butyn-1-yl)-8-[3-(R)-amino-piperidin-1-yl]-xanthine monohydrochloride corresponds to 0.923 mg 1-[(3-cyano-pyridin-2-yl)methyl]-3-methyl-7-(2-butyn-1-yl)-8-[3-(R)-amino-piperidin-1-yl]-xanthine free base).\nTwelve clinically healthy male adult domestic short hair cats with a body weight range of 3.5-4.7 kg were used in this study. All animals were treated orally once via a stomach tube. Blood samples for pharmacokinetic and pharmacodynamic (DPP IV activity) investigations were drawn at 0 h (i.e. prior to treatment), 30 min as well as 1, 2, 4, 8, 8.5, 9, 12, 24, 36, 48, 72, 84 and 96 h after treatment. Blood samples for pharmacodynamic (glucagon-like peptide 1 concentrations) investigations were drawn at −16 (i.e. prior to feeding), −15.5, −15 h as well as at 8 h (i.e. prior to feeding), 8.5 and 9 h after treatment."}, "[5]": {"settings": "Glucose oxidase (reference method)"}}, "note": "Where a name gives a salt, the structure may show the parent alone. Read-outs that look alike come from different tables or passages of the source.", "data": [{"smiles": "CC#CCn1c(N2CCC[C@@H](N)C2)nc2c1c(=O)n(Cc1ncccc1C#N)c(=O)n2C", "note": "[1-[(3-cyano-pyridin-2-yl)methyl]-3-methyl-7-(2-butyn-1-yl)-8-[3-(R)-amino-piperidin-1-yl]-xanthine monohydrochloride]", "values": [{"measurement": "response vs control in vivo at 0.01 mg/kg", "setting": "[1]; 0.5 h", "result": 73, "unit": "%"}, {"measurement": "response vs control in vivo at 0.01 mg/kg", "setting": "[1]; 1 h", "result": 66, "unit": "%"}, {"measurement": "response vs control in vivo at 0.01 mg/kg", "setting": "[1]; 2 h", "result": 71, "unit": "%"}, {"measurement": "response vs control in vivo at 0.01 mg/kg", "setting": "[1]; 4 h", "result": 77, "unit": "%"}, {"measurement": "response vs control in vivo at 0.01 mg/kg", "setting": "[1]; 8 h", "result": 85, "unit": "%"}, {"measurement": "response vs control in vivo at 0.01 mg/kg", "setting": "[1]; 12 h", "result": 88, "unit": "%"}, {"measurement": "response vs control in vivo at 0.01 mg/kg", "setting": "[1]; 24 h", "result": 90, "unit": "%"}, {"measurement": "response vs control in vivo at 0.01 mg/kg", "setting": "[1]; 36 h", "result": 87, "unit": "%"}, {"measurement": "response vs control in vivo at 0.01 mg/kg", "setting": "[1]; 48 h", "result": 88, "unit": "%"}, {"measurement": "response vs control in vivo at 0.01 mg/kg", "setting": "[1]; 72 h", "result": 85, "unit": "%"}, {"measurement": "response vs control in vivo at 0.01 mg/kg", "setting": "[1]; 96 h", "result": 90, "unit": "%"}, {"measurement": "response vs control in vivo at 0.1 mg/kg", "setting": "[1]; 0.5 h", "result": 23, "unit": "%"}, {"measurement": "response vs control in vivo at 0.1 mg/kg", "setting": "[1]; 1 h", "result": 17, "unit": "%"}, {"measurement": "response vs control in vivo at 0.1 mg/kg", "setting": "[1]; 2 h", "result": 16, "unit": "%"}, {"measurement": "response vs control in vivo at 0.1 mg/kg", "setting": "[1]; 4 h", "result": 24, "unit": "%"}, {"measurement": "response vs control in vivo at 0.1 mg/kg", "setting": "[1]; 8 h", "result": 39, "unit": "%"}, {"measurement": "response vs control in vivo at 0.1 mg/kg", "setting": "[1]; 12 h", "result": 50, "unit": "%"}, {"measurement": "response vs control in vivo at 0.1 mg/kg", "setting": "[1]; 24 h", "result": 67, "unit": "%"}, {"measurement": "response vs control in vivo at 0.1 mg/kg", "setting": "[1]; 36 h", "result": 83, "unit": "%"}, {"measurement": "response vs control in vivo at 0.1 mg/kg", "setting": "[1]; 48 h", "result": 82, "unit": "%"}, {"measurement": "response vs control in vivo at 0.1 mg/kg", "setting": "[1]; 72 h", "result": 91, "unit": "%"}, {"measurement": "response vs control in vivo at 0.1 mg/kg", "setting": "[1]; 96 h", "result": 90, "unit": "%"}, {"measurement": "response vs control in vivo at 1 mg/kg", "setting": "[1]; 0.5 h", "result": 10, "unit": "%"}, {"measurement": "response vs control in vivo at 1 mg/kg", "setting": "[1]; 1 h", "result": 10, "unit": "%"}, {"measurement": "response vs control in vivo at 1 mg/kg", "setting": "[1]; 2 h", "result": 8, "unit": "%"}, {"measurement": "response vs control in vivo at 1 mg/kg", "setting": "[1]; 4 h", "result": 10, "unit": "%"}, {"measurement": "response vs control in vivo at 1 mg/kg", "setting": "[1]; 8 h", "result": 12, "unit": "%"}, {"measurement": "response vs control in vivo at 1 mg/kg", "setting": "[1]; 12 h", "result": 15, "unit": "%"}, {"measurement": "response vs control in vivo at 1 mg/kg", "setting": "[1]; 24 h", "result": 27, "unit": "%"}, {"measurement": "response vs control in vivo at 1 mg/kg", "setting": "[1]; 36 h", "result": 63, "unit": "%"}, {"measurement": "response vs control in vivo at 1 mg/kg", "setting": "[1]; 48 h", "result": 72, "unit": "%"}, {"measurement": "response vs control in vivo at 1 mg/kg", "setting": "[1]; 72 h", "result": 80, "unit": "%"}, {"measurement": "response vs control in vivo at 1 mg/kg", "setting": "[1]; 96 h", "result": 86, "unit": "%"}, {"measurement": "inhibitory effect on Prolyl-Oligo Peptidase", "setting": "[2]", "result": "did not exert any inhibitory effect"}, {"measurement": "Glucose, Max", "setting": "[3]; CGM", "result": 126, "unit": "mg/dL"}, {"measurement": "Glucose, Mean", "setting": "[3]; CGM", "result": 94, "unit": "mg/dL"}, {"measurement": "Glucose, Median", "setting": "[3]; CGM", "result": 93, "unit": "mg/dL"}, {"measurement": "Glucose, Min", "setting": "[3]; CGM", "result": 66, "unit": "mg/dL"}, {"measurement": "Glucose, Max", "setting": "[3]; Glucometer", "result": 131, "unit": "mg/dL"}, {"measurement": "Glucose, Mean", "setting": "[3]; Glucometer", "result": 103, "unit": "mg/dL"}, {"measurement": "Glucose, Median", "setting": "[3]; Glucometer", "result": 101, "unit": "mg/dL"}, {"measurement": "Glucose, Min", "setting": "[3]; Glucometer", "result": 79, "unit": "mg/dL"}, {"measurement": "Glucose, Max", "setting": "[3]; [5]", "result": 142, "unit": "mg/dL"}, {"measurement": "Glucose, Mean", "setting": "[3]; [5]", "result": 93, "unit": "mg/dL"}, {"measurement": "Glucose, Median", "setting": "[3]; [5]", "result": 89, "unit": "mg/dL"}, {"measurement": "Glucose, Min", "setting": "[3]; [5]", "result": 71, "unit": "mg/dL"}, {"measurement": "daily blood glucose concentrations, treated vs placebo treated", "setting": "[3]; obese or non-obese cats", "result": "no difference in daily blood glucose concentrations"}, {"measurement": "adverse events", "setting": "[4]", "result": "No specific adverse events were observed"}]}]}
